“Also recorded” adds a separate entry of the source. One block for each compound: values may come before it.
Key:
[1] = HIAC light obscuration test (USP 788), aggregate particle content; type: physicochemical; settings: composition prepared as a liquid solution
Description: Light obscuration testing was performed for solution preparations prepared with some of the compositions described in the examples according to the method described in the United States Pharmacopeia (USP 788) using HIAC-3000 light obscuration detector. Particle content is denoted by the number of particles per milliliter of solution. The value is an average of two measurements. Samples were tested at 1 hour and at 20 hours.

[2] = Amounts of antibiotic components in the solution over time (reverse-phase LC/UV for β-lactams and β-lactamase inhibitors, HPLC/evaporation-light-scattering for aminoglycosides); type: physicochemical
Description: The amounts of β-lactam antibiotics and β-lactamase inhibitor were determined using C18 reverse-phase LC and UV-VIS detector (Tianjin […] Co., Ltd., analysis method No. HM-K-03). The content of aminoglycoside antibiotics was measured using reverse-phase HPLC and evaporation-light-scattering detector (Tianjin […] Co., Ltd., analysis method No. HM-K-08). […] The relative amount of each antibiotic component in the composition at each time point was expressed as peak area ratio with respect to the corresponding peak area of an external standard.

[3] = Example 7 solution (ceftriaxone sodium, sulbactam sodium, etimicin sulfate, disodium EDTA, sodium citrate pH 6.5), room temperature, 0 h
[4] = Example 7 solution (ceftriaxone sodium, sulbactam sodium, etimicin sulfate, disodium EDTA, sodium citrate pH 6.5), room temperature, 1 h
[5] = Example 7 solution (ceftriaxone sodium, sulbactam sodium, etimicin sulfate, disodium EDTA, sodium citrate pH 6.5), room temperature, 2 h
[6] = Example 7 solution (ceftriaxone sodium, sulbactam sodium, etimicin sulfate, disodium EDTA, sodium citrate pH 6.5), room temperature, 4 h
[7] = Example 7 solution (ceftriaxone sodium, sulbactam sodium, etimicin sulfate, disodium EDTA, sodium citrate pH 6.5), room temperature, 6 h
[8] = Example 7 solution (ceftriaxone sodium, sulbactam sodium, etimicin sulfate, disodium EDTA, sodium citrate pH 6.5), room temperature, 8 h
[9] = Example 5 solution (cefoperazone sodium, sulbactam sodium, gentamicin, disodium EDTA, sodium citrate pH 6.75), room temperature, 0 h
[10] = Example 5 solution (cefoperazone sodium, sulbactam sodium, gentamicin, disodium EDTA, sodium citrate pH 6.75), room temperature, 1 h
[11] = Example 5 solution (cefoperazone sodium, sulbactam sodium, gentamicin, disodium EDTA, sodium citrate pH 6.75), room temperature, 2 h
[12] = Example 5 solution (cefoperazone sodium, sulbactam sodium, gentamicin, disodium EDTA, sodium citrate pH 6.75), room temperature, 4 h
[13] = Example 6 solution (cefoperazone sodium, sulbactam sodium, etimicin sulfate, disodium EDTA, sodium citrate pH 6.5), room temperature, 0 h
[14] = Example 6 solution (cefoperazone sodium, sulbactam sodium, etimicin sulfate, disodium EDTA, sodium citrate pH 6.5), room temperature, 1 h
[15] = Example 6 solution (cefoperazone sodium, sulbactam sodium, etimicin sulfate, disodium EDTA, sodium citrate pH 6.5), room temperature, 2 h
[16] = Example 6 solution (cefoperazone sodium, sulbactam sodium, etimicin sulfate, disodium EDTA, sodium citrate pH 6.5), room temperature, 4 h

Compound: O=C(O)CN(CCN(CC(=O)O)CC(=O)O)CC(=O)O [EDTA, ethylenediamine tetraacetic acid]
Effect on aggregate particle formation in the solution preparations [1]: significantly reduce aggregate particle formation; also recorded: effective in inhibiting formation of aggregate particles

Compound: CO/N=C(\C(=O)N[C@@H]1C(=O)N2C(C(=O)O)=C(CSc3nc(=O)c(=O)[nH]n3C)CS[C@H]12)c1csc(N)n1 [Ceftriaxone sodium, ceftriaxone sodium]
Amount of component, percentage of amount at initial time [2, 3]: 97.01%
Amount of component, percentage of amount at initial time [2, 4]: 100.3%
Amount of component, percentage of amount at initial time [2, 5]: 96.40%
Amount of component, percentage of amount at initial time [2, 6]: 99.01%
Amount of component, percentage of amount at initial time [2, 7]: 98.91%
Amount of component, percentage of amount at initial time [2, 8]: 99.53%
Amount of component, percentage of amount at initial time ([2]; Example 8 solution (ceftriaxone sodium, tazobactam sodium, gentamicin sulfate, sodium citrate pH 6.75), room temperature, 0 h): 98.75%
Amount of component, percentage of amount at initial time ([2]; Example 8 solution (ceftriaxone sodium, tazobactam sodium, gentamicin sulfate, sodium citrate pH 6.75), room temperature, 1 h): 100.1%
Amount of component, percentage of amount at initial time ([2]; Example 8 solution (ceftriaxone sodium, tazobactam sodium, gentamicin sulfate, sodium citrate pH 6.75), room temperature, 2 h): 99.97%
Amount of component, percentage of amount at initial time ([2]; Example 8 solution (ceftriaxone sodium, tazobactam sodium, gentamicin sulfate, sodium citrate pH 6.75), room temperature, 4 h): 98.87%
Amount of component, percentage of amount at initial time ([2]; Example 8 solution (ceftriaxone sodium, tazobactam sodium, gentamicin sulfate, sodium citrate pH 6.75), room temperature, 6 h): 99.27%
Amount of component, percentage of amount at initial time ([2]; Example 8 solution (ceftriaxone sodium, tazobactam sodium, gentamicin sulfate, sodium citrate pH 6.75), room temperature, 8 h): 100.5%

Compound: CC1(C)[C@H](C(=O)O)N2C(=O)C[C@H]2S1(=O)=O [Sulbactam sodium, sulbactam sodium]
Amount of component, percentage of amount at initial time ([2]; Example 4 solution (cefoperazone sodium, sulbactam sodium, gentamicin, sodium citrate pH 6.75, no EDTA), room temperature, 0 h): 101.4%
Amount of component, percentage of amount at initial time ([2]; Example 4 solution (cefoperazone sodium, sulbactam sodium, gentamicin, sodium citrate pH 6.75, no EDTA), room temperature, 1 h): 101.4%
Amount of component, percentage of amount at initial time ([2]; Example 4 solution (cefoperazone sodium, sulbactam sodium, gentamicin, sodium citrate pH 6.75, no EDTA), room temperature, 2 h): 101.5%
Amount of component, percentage of amount at initial time ([2]; Example 4 solution (cefoperazone sodium, sulbactam sodium, gentamicin, sodium citrate pH 6.75, no EDTA), room temperature, 4 h): 109.7%
Amount of component, percentage of amount at initial time ([2]; Example 4 solution (cefoperazone sodium, sulbactam sodium, gentamicin, sodium citrate pH 6.75, no EDTA), room temperature, 6 h): 103.2%
Amount of component, percentage of amount at initial time [2, 9]: 101.4%
Amount of component, percentage of amount at initial time [2, 10]: 101.4%
Amount of component, percentage of amount at initial time [2, 11]: 101.5%
Amount of component, percentage of amount at initial time [2, 12]: 109.7%
Amount of component, percentage of amount at initial time ([2]; Example 5 solution (cefoperazone sodium, sulbactam sodium, gentamicin, disodium EDTA, sodium citrate pH 6.75), room temperature, 6 h): 103.2%
Amount of component, percentage of amount at initial time [2, 13]: 99.62%
Amount of component, percentage of amount at initial time [2, 14]: 100.4%
Amount of component, percentage of amount at initial time [2, 15]: 100.2%
Amount of component, percentage of amount at initial time [2, 16]: 100.2%
Amount of component, percentage of amount at initial time [2, 3]: 96.84%
Amount of component, percentage of amount at initial time [2, 4]: 94.43%
Amount of component, percentage of amount at initial time [2, 5]: 93.35%
Amount of component, percentage of amount at initial time [2, 6]: 93.23%
Amount of component, percentage of amount at initial time [2, 7]: 92.13%
Amount of component, percentage of amount at initial time [2, 8]: 93.38%
Amount of component, percentage of amount at initial time ([2]; Example 10: piperacillin sodium/sulbactam sodium solution cryopreserved 7 days, thawed, pH 6.0, etimicin sulfate added, no EDTA, 0 h): 94.1%
Amount of component, percentage of amount at initial time ([2]; Example 10: piperacillin sodium/sulbactam sodium solution cryopreserved 7 days, thawed, pH 6.0, etimicin sulfate added, no EDTA, 1 h): 97.4%
Amount of component, percentage of amount at initial time ([2]; Example 10: piperacillin sodium/sulbactam sodium solution cryopreserved 7 days, thawed, pH 6.0, etimicin sulfate added, no EDTA, 2 h): 96.4%
Amount of component, percentage of amount at initial time ([2]; Example 10: piperacillin sodium/sulbactam sodium solution cryopreserved 7 days, thawed, pH 6.0, etimicin sulfate added, no EDTA, 4 h): 97.7%
Amount of component, percentage of amount at initial time ([2]; Example 10: piperacillin sodium/sulbactam sodium solution cryopreserved 7 days, thawed, pH 6.0, etimicin sulfate added, no EDTA, 6 h): 96.9%
Amount of component, percentage of amount at initial time ([2]; Example 10: piperacillin sodium/sulbactam sodium solution cryopreserved 7 days, thawed, pH 6.0, etimicin sulfate added, no EDTA, 8 h): 97.1%

Other lines, results leading:

Amount of component, percentage of amount at initial time ([2]; Example 9: freeze-dried amikacin sulfate/disodium EDTA/citrate pH 6.5 powder stored 7 days at 0° C., redissolved, mezlocillin sodium added, 0 h): 94.68%
Amount of component, percentage of amount at initial time ([2]; Example 9: freeze-dried amikacin sulfate/disodium EDTA/citrate pH 6.5 powder stored 7 days at 0° C., redissolved, mezlocillin sodium added, 1 h): 95.90%
Amount of component, percentage of amount at initial time ([2]; Example 9: freeze-dried amikacin sulfate/disodium EDTA/citrate pH 6.5 powder stored 7 days at 0° C., redissolved, mezlocillin sodium added, 2 h): 71.70%
Amount of component, percentage of amount at initial time ([2]; Example 9: freeze-dried amikacin sulfate/disodium EDTA/citrate pH 6.5 powder stored 7 days at 0° C., redissolved, mezlocillin sodium added, 4 h): 91.78%
Amount of component, percentage of amount at initial time ([2]; Example 9: freeze-dried amikacin sulfate/disodium EDTA/citrate pH 6.5 powder stored 7 days at 0° C., redissolved, mezlocillin sodium added, 6 h): 93.08%
Amount of component, percentage of amount at initial time ([2]; Example 9: freeze-dried amikacin sulfate/disodium EDTA/citrate pH 6.5 powder stored 7 days at 0° C., redissolved, mezlocillin sodium added, 8 h): 97.69%
Compound: CC1(C)S[C@@H]2[C@H](NC(=O)[C@H](NC(=O)N3CCN(S(C)(=O)=O)C3=O)c3ccccc3)C(=O)N2[C@H]1C(=O)O [Mezlocillin sodium, mezlocillin sodium]

Amount of component, percentage of amount at initial time [2, 13]: 108.9%
Amount of component, percentage of amount at initial time [2, 14]: 100.2%
Amount of component, percentage of amount at initial time [2, 15]: 100.5%
Amount of component, percentage of amount at initial time [2, 16]: 100.4%
Amount of component, percentage of amount at initial time ([2]; Example 6 solution (cefoperazone sodium, sulbactam sodium, etimicin sulfate, disodium EDTA, sodium citrate pH 6.5), room temperature, 6 h): 100.4%
Amount of component, percentage of amount at initial time ([2]; Example 6 solution (cefoperazone sodium, sulbactam sodium, etimicin sulfate, disodium EDTA, sodium citrate pH 6.5), room temperature, 8 h): 97.50%
Amount of component, percentage of amount at initial time [2, 3]: 100.7%
Amount of component, percentage of amount at initial time [2, 4]: 101.0%
Amount of component, percentage of amount at initial time [2, 5]: 101.0%
Amount of component, percentage of amount at initial time [2, 6]: 101.0%
Amount of component, percentage of amount at initial time [2, 7]: 100.8%
Amount of component, percentage of amount at initial time [2, 8]: 100.7%
Amount of component, percentage of amount at initial time ([2]; Example 11: solution of Example 10 freeze-dried, stored 7 days at 0° C., redissolved, pH 6.0, etimicin sulfate and disodium EDTA added, 0 h): 94.81%
Amount of component, percentage of amount at initial time ([2]; Example 11: solution of Example 10 freeze-dried, stored 7 days at 0° C., redissolved, pH 6.0, etimicin sulfate and disodium EDTA added, 1 h): 99.66%
Amount of component, percentage of amount at initial time ([2]; Example 11: solution of Example 10 freeze-dried, stored 7 days at 0° C., redissolved, pH 6.0, etimicin sulfate and disodium EDTA added, 2 h): 100.9%
Amount of component, percentage of amount at initial time ([2]; Example 11: solution of Example 10 freeze-dried, stored 7 days at 0° C., redissolved, pH 6.0, etimicin sulfate and disodium EDTA added, 4 h): 101.5%
Amount of component, percentage of amount at initial time ([2]; Example 11: solution of Example 10 freeze-dried, stored 7 days at 0° C., redissolved, pH 6.0, etimicin sulfate and disodium EDTA added, 6 h): 96.97%
Amount of component, percentage of amount at initial time ([2]; Example 11: solution of Example 10 freeze-dried, stored 7 days at 0° C., redissolved, pH 6.0, etimicin sulfate and disodium EDTA added, 8 h): 94.44%
Amount of component, percentage of amount at initial time ([2]; Example 14: cefoperazone sodium/tazobactam sodium solution pH 6.75, etimicin sulfate added, 0 h): 100%
Amount of component, percentage of amount at initial time ([2]; Example 14: cefoperazone sodium/tazobactam sodium solution pH 6.75, etimicin sulfate added, 1 h): 98.8%
Amount of component, percentage of amount at initial time ([2]; Example 14: cefoperazone sodium/tazobactam sodium solution pH 6.75, etimicin sulfate added, 2 h): 97.5%
Amount of component, percentage of amount at initial time ([2]; Example 14: cefoperazone sodium/tazobactam sodium solution pH 6.75, etimicin sulfate added, 4 h): 98.4%
Amount of component, percentage of amount at initial time ([2]; Example 14: cefoperazone sodium/tazobactam sodium solution pH 6.75, etimicin sulfate added, 6 h): 95.6%
Amount of component, percentage of amount at initial time ([2]; Example 14: cefoperazone sodium/tazobactam sodium solution pH 6.75, etimicin sulfate added, 8 h): 92.8%
Compound: CCN[C@@H]1C[C@H](N)[C@@H](O[C@H]2O[C@H](CN)CC[C@H]2N)[C@H](O)[C@H]1O[C@H]1OC[C@](C)(O)[C@H](NC)[C@H]1O [Etimicin, etimicin]

Amount of component, percentage of amount at initial time [2, 9]: 102.1%
Amount of component, percentage of amount at initial time [2, 10]: 104.6%
Amount of component, percentage of amount at initial time [2, 11]: 96.51%
Amount of component, percentage of amount at initial time [2, 12]: 100.4%
Compound: gentamicin

— patent publication US20090156517A1, “STABLE PHARMACEUTICAL COMPOSITIONS OF AMINOGLYCOSIDE ANTIBIOTICS, ION-CHELATING AGENTS, AND BUFFERS” (priority 2006, published 2009)
